Reference: ChEMBL document CHEMBL1146550, “Sesquiterpenoid derivatives from Gonospermum elegans and their cytotoxic activity for HL-60 human promyelocytic cells” (J Nat Prod, 2003)
Active and inactive are the calls of the source. The rule behind the calls is not given here.

What was measured:
HL-60 [1] = experiment: Antiproliferative activity against human HL60 cells after 24 hrs by MTT assay; type: functional, cell-based; settings: for IC50: HL-60, 24 h
HL-60 [2] = experiment: Induction of apoptosis in human HL60 cells assessed as apoptotic cells after 12 hrs by Hoechst staining-based fluorescence microscopy; type: functional, cell-based
HL-60 [3] = experiment: Induction of apoptosis in human HL60 cells assessed as apoptotic cells at 1 uM after 12 hrs by Hoechst staining-based fluorescence microscopy; type: functional
HL-60 [4] = experiment: Induction of apoptosis in human HL60 cells assessed as peripheral nuclear chromatin condensation at 0.1 to 3 uM after 12 hrs by Hoechst staining-based fluorescence microscopy; type: functional, cell-based
HL-60 [5] = experiment: Induction of apoptosis in human HL60 cells assessed as PARP cleavage at 0.1 to 1 uM after 8 hrs by SDS-PAGE; type: functional, cell-based
HL-60 [6] = experiment: Induction of apoptosis in human HL60 cells assessed as PARP cleavage at 0.1 to 1 uM after 12 hrs by SDS-PAGE; type: functional, cell-based
HL-60 [7] = experiment: Induction of apoptosis in human HL60 cells assessed as […] DNA fragmentation at 1 uM after 12 hrs by agarose gel electrophoresis; type: functional, cell-based
HL-60 [8] = experiment: Induction of apoptosis in human HL60 cells assessed as apoptotic cells at 10 uM after 12 hrs by Hoechst staining-based fluorescence microscopy; type: functional
HL-60 [9] = experiment: Induction of apoptosis in human HL60 cells assessed as PARP cleavage at 1 to 10 uM after 8 hrs by SDS-PAGE; type: functional, cell-based
HL-60 [10] = experiment: Induction of apoptosis in human HL60 cells assessed as PARP cleavage at 1 to 10 uM after 12 hrs by SDS-PAGE; type: functional, cell-based
HL-60 [11] = experiment: Induction of apoptosis in human HL60 cells assessed as […] DNA fragmentation at 10 uM after 12 hrs by agarose gel electrophoresis; type: functional, cell-based

Row | IC50 (HL-60 [1]) [µM] | Structure (SMILES) | Activity (HL-60 [1]) | Activity (HL-60 [2]) | Activity (HL-60 [3]) [%] | Activity (HL-60 [4]) | Activity (HL-60 [5]) | Activity (HL-60 [6]) | Activity (HL-60 [7]) | Activity (HL-60 [8]) [%] | Activity (HL-60 [9]) | Activity (HL-60 [10]) | Activity (HL-60 [11])
1 | 0.25 | C=C1CC[C@H](OC(C)=O)/C(C)=C\[C@@H]2OC(=O)C(=C)[C@H]2[C@H](OC(C)=O)C1=O | Dose-dependent effect | Dose-dependent effect | 25.9 | Active | Active | Active | Active | – | – | – | –
2 | 55.1 | C=C1C(=O)O[C@H]2C[C@@]3(C)[C@H](C(=C)CC[C@@H]3O)[C@@H](O)[C@H]12 [ELEGALACTONE A] | – | – | – | – | – | – | – | – | – | – | –
3 | 5.3 | C=C1C(=O)O[C@H]2C[C@]3(C)[C@@H](OC(C)=O)CCC(=C)[C@@H]3[C@@H](OC(C)=O)[C@H]12 | Dose-dependent effect | Dose-dependent effect | – | – | – | – | – | 14.3 | Active | Active | Active
